The molecules below were run on Cancer cells (KG-1) (assay: Cytotoxicity assay, WST-1, KG-1). Details: Homo sapiens; KG-1 cells, 72 hours, WST-1.
Type: cell-based
Procedure: To evaluate the effect of the compounds of the present disclosure on cancer cells, a cytotoxicity assay was conducted as follows.
Cancer cells (KG-1) were seeded at a concentration of 10,000 cells per well into a 96-well plate. Then, the cells were treated with predetermined concentrations of compounds of the Examples and comparative substances (comparative compounds 1, 2, 3). After 72 hours, the cells were incubated with WST-1 reagent for one hour. Then, absorbance was measured at 450 nm using a spectramax spectrophotometer to assess the degree of cancer cell apoptosis. The IC50 (μM) values were calculated using the measured values with the GraphPad Prism program and the measurements are summarized in Table 1.

Row | Compound | IC50
1 | O=C1CCC(N2Cc3cc(CNC(=O)c4cc(-c5ccc(Cl)cc5)on4)ccc3C2=O)C(=O)N1 (stereo not drawn) [Compound 11, 5-(4-Chlorophenyl)-N-((2-(2,6-dioxopiperidin-3-yl)-1-oxoisoindolin-5-yl)methyl)isoxazole-3-carboxamide] | 0.0001 to 0.01 µM
2 | O=C1CCC(N2Cc3cc(CNC(=O)c4nc5cc(Cl)ccc5s4)ccc3C2=O)C(=O)N1 (stereo not drawn) [Compound 44, 5-chloro-N-((2-(2,6-dioxopiperidin-3-yl)-1-oxoisoindolin-5-yl)methyl)benzo[d]thiazole-2-carboxamide] | 0.01 to 1 µM
3 | Cc1c(C(=O)NCc2ccc3c(c2)CN(C2CCC(=O)NC2=O)C3=O)n[nH]c1-c1ccccc1 (stereo not drawn) [Compound 17, N-((2-(2,6-Dioxopiperidin-3-yl)-1-oxoisoindolin-5-yl)methyl)-4-methyl-5-phenyl-1H-pyrazole-3-carboxamide] | 0.0001 to 0.01 µM
4 | O=C1CCC(N2Cc3cc(CNC(=O)c4ccccc4-c4ccccc4)ccc3C2=O)C(=O)N1 (stereo not drawn) [Compound 52, N-((2-(2,6-Dioxopiperidin-3-yl)-1-oxoisoindolin-5-yl)methyl)-[1,1′-biphenyl]-2-carboxamide] | 10 to 50 µM
5 | O=C1CCC(N2Cc3cc(CNC(=O)c4cc(-c5cccc(Cl)c5)n[nH]4)ccc3C2=O)C(=O)N1 (stereo not drawn) [Compound 5, 3-(3-Chlorophenyl)-N-((2-(2,6-dioxopiperidin-3-yl)-1-oxoisoindolin-5-yl)methyl)-1H-pyrazole-5-carboxamide] | 0.0001 to 0.01 µM
6 | O=C1CCC(N2Cc3cc(CNC(=O)c4n[nH]c5ccccc45)ccc3C2=O)C(=O)N1 (stereo not drawn) [Compound 34, N-((2-(2,6-Dioxopiperidin-3-yl)-1-oxoisoindolin-5-yl)methyl)-1H-indazole-3-carboxamide] | 0.01 to 1 µM
7 | Cc1c(C(=O)NCc2ccc3c(c2)CN(C2CCC(=O)NC2=O)C3=O)nn(Cc2ccccc2)c1-c1cccc(Cl)c1 (stereo not drawn) [Compound 21, 1-Benzyl-5-(3-chlorophenyl)-N-((2-(2,6-dioxopiperidin-3-yl)-1-oxoisoindolin-5-yl)methyl)-4-methyl-1H-pyrazole-3-carboxamide] | 0.0001 to 0.01 µM
8 | Cn1cc(-c2cccc(Cl)c2)cc1C(=O)NCc1ccc2c(c1)CN(C1CCC(=O)NC1=O)C2=O (stereo not drawn) [Compound 40, 4-(3-Chlorophenyl)-N-((2-(2,6-dioxopiperidin-3-yl)-1-oxoisoindolin-5-yl)methyl)-1-methyl-1H-pyrrole-2-carboxamide] | 0.0001 to 0.01 µM
9 | O=C1CCC(N2Cc3cc(CNC(=O)c4ccccc4)ccc3C2=O)C(=O)N1 (stereo not drawn) [Comparative substance, reference compound] | 10 to 50 µM
10 | O=C1CCC(N2Cc3cc(CNC(=O)c4cccc(-c5ccccc5)c4)ccc3C2=O)C(=O)N1 (stereo not drawn) [Compound 30, N-((2-(2,6-Dioxopiperidin-3-yl)-1-oxoisoindolin-5-yl)methyl)-[1,1′-biphenyl]-3-carboxamide] | 10 to 50 µM
11 | O=C1CCC(N2Cc3cc(CNC(=O)c4n[nH]c5ccc(Cl)cc45)ccc3C2=O)C(=O)N1 (stereo not drawn) [Compound 8, 5-Chloro-N-((2-(2,6-dioxopiperidin-3-yl)-1-oxoisoindolin-5-yl)methyl)-1H-indazole-3-carboxamide] | 0.01 to 1 µM
12 | O=C1CCC(N2Cc3cc(CNC(=O)c4cn(-c5cccc(Cl)c5)nn4)ccc3C2=O)C(=O)N1 (stereo not drawn) [Compound 15, 1-(3-chlorophenyl)-N-((2-(2,6-dioxopiperidin-3-yl)-1-oxoisoindolin-5-yl)methyl)-1H-1,2,3-triazole-4-carboxamide] | 0.0001 to 0.01 µM
13 | O=C1CCC(N2Cc3cc(CNC(=O)c4cc(-c5ccc(Cl)cc5)n[nH]4)ccc3C2=O)C(=O)N1 (stereo not drawn) [Compound 2, 3-(4-Chlorophenyl)-N-((2-(2,6-dioxopiperidin-3-yl)-1-oxoisoindolin-5-yl)methyl)-1H-pyrazole-5-carboxamide] | 0.0001 to 0.01 µM
14 | O=C1CCC(N2Cc3cc(CNC(=O)c4cc5ccccc5cn4)ccc3C2=O)C(=O)N1 (stereo not drawn) [Comparative Compound 1, N-((2-(2,6-Dioxopiperidin-3-yl)-1-oxoisoindolin-5-yl)methyl)isoquinoline-3-carboxamide, reference compound] | 10 to 50 µM
15 | O=C1CCC(N2Cc3cc(CNC(=O)c4n[nH]c(-c5cccc(Cl)c5)c4Br)ccc3C2=O)C(=O)N1 (stereo not drawn) [Compound 27, 4-Bromo-3-(3-chlorophenyl)-N-((2-(2,6-dioxopiperidin-3-yl)-1-oxoisoindolin-5-yl)methyl)-1H-pyrazole-5-carboxamide] | 0.0001 to 0.01 µM
16 | Cn1nc(C(=O)NCc2ccc3c(c2)CN(C2CCC(=O)NC2=O)C3=O)cc1-c1ccccc1 (stereo not drawn) [Compound 23, N-((2-(2,6-Dioxopiperidin-3-yl)-1-oxoisoindolin-5-yl)methyl)-1-methyl-5-phenyl-1H-pyrazole-3-carboxamide] | 0.0001 to 0.01 µM

Row | Compound | IC50
17 | O=C1CCC(N2Cc3cc(CNC(=O)c4cnc5ccccc5n4)ccc3C2=O)C(=O)N1 (stereo not drawn) [Comparative Compound 2, N-((2-(2,6-Dioxopiperidin-3-yl)-1-oxoisoindolin-5-yl)methyl)quinoxaline-2-carboxamide, reference compound] | 10 to 50 µM
18 | O=C1CCC(N2Cc3cc(CNC(=O)c4cc(-c5cc(Cl)ccc5Cl)[nH]n4)ccc3C2=O)C(=O)N1 (stereo not drawn) [Compound 28, 5-(2,5-Dichlorophenyl)-N-((2-(2,6-dioxopiperidin-3-yl)-1-oxoisoindolin-5-yl)methyl)-1H-pyrazole-3-carboxamide] | 0.0001 to 0.01 µM
19 | O=C1CCC(N2Cc3cc(CNC(=O)C4(c5ccc(Cl)cc5)CCCC4)ccc3C2=O)C(=O)N1 (stereo not drawn) [Compound 53, 1-(4-Chlorophenyl)-N-((2-(2,6-dioxopiperidin-3-yl)-1-oxoisoindolin-5-yl)methyl)cyclopentane-1-carboxamide] | 10 to 50 µM
20 | Cc1cnc(C(=O)NCc2ccc3c(c2)CN(C2CCC(=O)NC2=O)C3=O)cc1-c1ccccc1 (stereo not drawn) [Compound 45, N-((2-(2,6-Dioxopiperidin-3-yl)-1-oxoisoindolin-5-yl)methyl)-5-methyl-4-phenylpicolinamide] | 0.0001 to 0.01 µM
21 | O=C1CCC(N2Cc3cc(CNC(=O)c4cc(-c5cccc(Cl)c5)c[nH]4)ccc3C2=O)C(=O)N1 (stereo not drawn) [Compound 14, 4-(3-Chlorophenyl)-N-((2-(2,6-dioxopiperidin-3-yl)-1-oxoisoindolin-5-yl)methyl)-1H-pyrrole-2-carboxamide] | 0.0001 to 0.01 µM
22 | O=C1CCC(N2Cc3cc(CNC(=O)c4n[nH]c5cc(Cl)c(Cl)cc45)ccc3C2=O)C(=O)N1 (stereo not drawn) [Compound 4, 5,6-Dichloro-N-((2-(2,6-dioxopiperidin-3-yl)-1-oxoisoindolin-5-yl)methyl)-1H-indazole-3-carboxamide] | 0.0001 to 0.01 µM
23 | O=C1CCC(N2Cc3cc(CNC(=O)c4nc5ccc(Cl)cc5s4)ccc3C2=O)C(=O)N1 (stereo not drawn) [Compound 26, 6-Chloro-N-((2-(2,6-dioxopiperidin-3-yl)-1-oxoisoindolin-5-yl)methyl)benzo[d]thiazole-2-carboxamide] | 0.01 to 1 µM
24 | Cc1c(C(=O)NCc2ccc3c(c2)CN(C2CCC(=O)NC2=O)C3=O)nn(CC(C)C)c1-c1cccc(Cl)c1 (stereo not drawn) [Compound 41, 5-(3-Chlorophenyl)-N-((2-(2,6-dioxopiperidin-3-yl)-1-oxoisoindolin-5-yl)methyl)-1-isobutyl-4-methyl-1H-pyrazole-3-carboxamide] | 0.0001 to 0.01 µM
25 | Cc1c(C(=O)NCc2ccc3c(c2)CN(C2CCC(=O)NC2=O)C3=O)nn(Cc2ccc(F)cc2)c1-c1cccc(Cl)c1 (stereo not drawn) [Compound 43] | 0.0001 to 0.01 µM
26 | O=C1CCC(N2Cc3cc(CNC(=O)c4cc5ccc(Cl)cc5[nH]4)ccc3C2=O)C(=O)N1 (stereo not drawn) [Compound 9, 6-chloro-N-((2-(2,6-dioxopiperidin-3-yl)-1-oxoisoindolin-5-yl)methyl)-1H-indole-2-carboxamide] | 0.01 to 1 µM
27 | O=C1CCC(N2Cc3cc(CNC(=O)c4ccc5cc(Cl)ccc5n4)ccc3C2=O)C(=O)N1 (stereo not drawn) [Comparative Compound 3, 6-Chloro-N-((2-(2,6-dioxopiperidin-3-yl)-1-oxoisoindolin-5-yl)methyl)quinoline-2-carboxamide, reference compound] | 10 to 50 µM
28 | O=C1CCC(N2Cc3cc(CNC(=O)c4cc(-c5ccccc5)c(Cl)cn4)ccc3C2=O)C(=O)N1 (stereo not drawn) [Compound 46, 5-Chloro-N-((2-(2,6-dioxopiperidin-3-yl)-1-oxoisoindolin-5-yl)methyl)-4-phenylpicolinamide] | 0.0001 to 0.01 µM
29 | Cn1cc(-c2ccccc2)cc1C(=O)NCc1ccc2c(c1)CN(C1CCC(=O)NC1=O)C2=O (stereo not drawn) [Compound 39, N-((2-(2,6-Dioxopiperidin-3-yl)-1-oxoisoindolin-5-yl)methyl)-1-methyl-4-phenyl-1H-pyrrole-2-carboxamide] | 0.0001 to 0.01 µM
30 | O=C1CCC(N2Cc3cc(CNC(=O)c4cc(-c5ccc(Cl)cc5)ccn4)ccc3C2=O)C(=O)N1 (stereo not drawn) [Compound 18, 4-(4-chlorophenyl)-N-((2-(2,6-dioxopiperidin-3-yl)-1-oxoisoindolin-5-yl)methyl)picolinamide] | 0.0001 to 0.01 µM
31 | O=C1CCC(N2Cc3cc(CNC(=O)c4n[nH]c5cc(Cl)ccc45)ccc3C2=O)C(=O)N1 (stereo not drawn) [Compound 1, 6-Chloro-N-((2-(2,6-dioxopiperidin-3-yl)-1-oxoisoindolin-5-yl)methyl)-1H-indazole-3-carboxamide] | 0.0001 to 0.01 µM

Same assay, conditions: R1 bicyclic heteroaryl compared to monocyclic aryl (comparative substance) or heteroaryl (Compounds 37 and 38)

Row | Compound | cytotoxic activity against KG-1 and NCI-H1155 cancer cells (in words)
32 | O=C1CCC(N2Cc3cc(CNC(=O)c4nc5cc(Cl)ccc5[nH]4)ccc3C2=O)C(=O)N1 (stereo not drawn) [Compound 3, 5-Chloro-N-((2-(2,6-dioxopiperidin-3-yl)-1-oxoisoindolin-5-yl)methyl)-1H-benzo[d]imidazole-2-carboxamide] | more potent cytotoxic activity

Same assay, conditions: monocyclic heteroaryl R1 and aryl R2 compared to bicyclic heteroaryl R1 (Compounds 8, 9, and 26)

Row | Compound | activity (in words)
33 | Cc1c(C(=O)NCc2ccc3c(c2)CN(C2CCC(=O)NC2=O)C3=O)n[nH]c1-c1ccccc1 (stereo not drawn) [Compound 17, N-((2-(2,6-Dioxopiperidin-3-yl)-1-oxoisoindolin-5-yl)methyl)-4-methyl-5-phenyl-1H-pyrazole-3-carboxamide] | significantly more potent activity
34 | Cn1cc(-c2cccc(Cl)c2)cc1C(=O)NCc1ccc2c(c1)CN(C1CCC(=O)NC1=O)C2=O (stereo not drawn) [Compound 40, 4-(3-Chlorophenyl)-N-((2-(2,6-dioxopiperidin-3-yl)-1-oxoisoindolin-5-yl)methyl)-1-methyl-1H-pyrrole-2-carboxamide] | significantly more potent activity
35 | Cn1nc(C(=O)NCc2ccc3c(c2)CN(C2CCC(=O)NC2=O)C3=O)cc1-c1ccccc1 (stereo not drawn) [Compound 23, N-((2-(2,6-Dioxopiperidin-3-yl)-1-oxoisoindolin-5-yl)methyl)-1-methyl-5-phenyl-1H-pyrazole-3-carboxamide] | significantly more potent activity
36 | Cn1cc(-c2ccccc2)cc1C(=O)NCc1ccc2c(c1)CN(C1CCC(=O)NC1=O)C2=O (stereo not drawn) [Compound 39, N-((2-(2,6-Dioxopiperidin-3-yl)-1-oxoisoindolin-5-yl)methyl)-1-methyl-4-phenyl-1H-pyrrole-2-carboxamide] | significantly more potent activity
